The text below walks through data of patent US20170291890A1 (Epizyme, Inc., priority 2014, published 2017).

This assay addresses T1, KDM4C (Homo sapiens, UniProt Q9H3R0).
T1 construct: N-terminal GST-tagged KDM4C^2-372 was purchased from BPS Biosciences; GST (N); purchased BPS Biosciences
T1 sequence (Q9H3R0 2-372): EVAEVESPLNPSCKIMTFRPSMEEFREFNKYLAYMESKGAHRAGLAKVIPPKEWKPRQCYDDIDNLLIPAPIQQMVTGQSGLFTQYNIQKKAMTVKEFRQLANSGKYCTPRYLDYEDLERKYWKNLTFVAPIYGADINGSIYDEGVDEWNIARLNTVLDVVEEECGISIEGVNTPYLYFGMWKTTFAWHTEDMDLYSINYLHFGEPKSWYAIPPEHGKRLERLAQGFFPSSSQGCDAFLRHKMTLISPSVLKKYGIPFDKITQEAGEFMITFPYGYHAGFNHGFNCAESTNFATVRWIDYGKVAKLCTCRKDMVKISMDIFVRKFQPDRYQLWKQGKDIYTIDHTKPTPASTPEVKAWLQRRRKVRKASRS
The experiment in a line: KDM4C Assay (SAMDI mass spectrometry demethylase assay). The class given is biochemical. The settings on record: N-terminal GST-tagged KDM4C 2-372; class symbols; read-out: 4C IC50. The gist of the method:
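GST-tagged KDM4C 2-372 (5 nM) preincubated 30 min with compound, then H3K9me3 biotinylated peptide (500 nM) and 2-oxoglutarate (15 μM) added in HEPES pH 8.0 with ascorbate, Fe(II), TCEP; 150 min at 25 °C, formic-acid quench. Conversion by SAMDI mass spectrometry from substrate/product peak AUC; IC50 from dose-response.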
With `O=C(O)c1ccncc1Nc1nn(-c2ccccc2)cc1-c1ccccc1` [Compound 42, 3-((1,4-diphenyl-1H-pyrazol-3-yl)amino)isonicotinic acid], the IC50 is 100 to 1000 nM. Next, `O=C(O)c1ccncc1Nc1c(-c2ccccc2)cnn1-c1ccccc1` [Compound 43, 3-((1,4-Diphenyl-1H-pyrazol-5-yl)amino)isonicotinic acid]: 10000 to 100000 nM. Next, `O=C(O)c1ccncc1Nc1nn(CCN2CCC(F)(F)CC2)cc1-c1ccc(F)cc1` [Compound 45, 3-((1-(2-(4,4-difluoropiperidin-1-yl)ethyl)-4-(4-fluorophenyl)-1H-pyrazol-3-yl)amino)isonicotinic acid]: 100 to 1000 nM; `O=C(O)c1ccncc1Nc1c(-c2ccc(F)cc2)cnn1CCN1CCC(F)(F)CC1` [Compound 46, 3-((1-(2-(4,4-difluoropiperidin-1-yl)ethyl)-4-(4-fluorophenyl)-1H-pyrazol-5-yl)amino) isonicotinic acid]: 10000 to 100000 nM. Next, `CN(C)CCCn1cc(-c2ccccc2)c(Nc2cnccc2C(=O)O)n1` [Compound 51, 3-((1-(3-(dimethylamino)propyl)-4-phenyl-1H-pyrazol-3-yl)amino) isonicotinic acid]: 100 to 1000 nM; `CN(C)CCCn1ncc(-c2ccccc2)c1Nc1cnccc1C(=O)O` [Compound 52, 3-((1-(3-(dimethylamino)propyl)-4-phenyl-1H-pyrazol-5-yl)amino) isonicotinic acid]: 10000 to 100000 nM; `Cc1c(-c2ccccc2)nn(C)c1Nc1cnccc1C(=O)O` [Compound 53, 3-((1,4-dimethyl-3-phenyl-1H-pyrazol-5-yl)amino)isonicotinic acid]: 100 to 1000 nM. Take `Cc1n[nH]c(-c2ccccc2)c1Nc1cnccc1C(=O)O` [Compound 55, 3-((5-methyl-3-phenyl-1H-pyrazol-4-yl)amino)isonicotinic acid]: the IC50 was in the range of 1000 to 10000 nM. Then `O=C(O)c1ccncc1Nc1cc(-c2ccccc2)nn1-c1ccncc1` [Compound 56, 3-((3-phenyl-1-(pyridin-4-yl)-1H-pyrazol-5-yl)amino) isonicotinic acid], with 100 to 1000 nM. Next, `O=C(O)c1ccncc1Nc1nn(CCN2CCC(F)(F)CC2)cc1C1CCCCC1` [Compound 57, 3-((4-cyclohexyl-1-(2-(4,4-difluoropiperidin-1-yl)ethyl)-1H-pyrazol-3-yl)amino)isonicotinic acid]: 100 to 1000 nM; `CNC(=O)c1ccc(-n2ncc(Nc3cnccc3C(=O)O)c2C)cc1` [Compound 58, 3-((5-methyl-1-(4-(methylcarbamoyl)phenyl)-1H-pyrazol-4-yl)amino) isonicotinic acid]: 1 to 100 nM; `CNC(=O)c1cccc(-n2ncc(Nc3cnccc3C(=O)O)c2C)c1` [Compound 59, 3-((5-methyl-1-(3-(methylcarbamoyl)phenyl)-1H-pyrazol-4-yl)amino) isonicotinic acid]: 1 to 100 nM.

As for `Cc1cc(Nc2cnccc2C(=O)O)nn1-c1ccccc1` [Compound 60, 3-((5-methyl-1-phenyl-1H-pyrazol-3-yl)amino)isonicotinic acid], the IC50 fell in the range of 100 to 1000 nM. Then `Cc1cc(Nc2cnccc2C(=O)O)n(-c2ccccc2)n1` [Compound 61, 3-((3-methyl-1-phenyl-1H-pyrazol-5-yl)amino) isonicotinic acid], with 100 to 1000 nM; and `Cc1cn(-c2ccccc2)nc1Nc1cnccc1C(=O)O` [Compound 62, 3-((4-methyl-1-phenyl-1H-pyrazol-3-yl)amino) isonicotinic acid], with 1 to 100 nM.

As for `COc1ccccc1-n1cc(C)c(Nc2cnccc2C(=O)O)n1` [Compound 63, 3-((1-(2-methoxyphenyl)-4-methyl-1H-pyrazol-3-yl)amino) isonicotinic acid], the IC50 lay within 100 to 1000 nM. Next, `CN(C)CCn1cc(-c2ccccc2)c(Nc2cnccc2C(=O)O)n1` [Compound 64, 3-((1-(2-(dimethylamino)ethyl)-4-phenyl-1H-pyrazol-3-yl)amino)isonicotinic acid]: 1 to 100 nM; `CN(C)CCn1ncc(-c2ccccc2)c1Nc1cnccc1C(=O)O` [Compound 65, 3-((1-(2-(dimethylamino)ethyl)-4-phenyl-1H-pyrazol-5-yl)amino)isonicotinic acid]: 1000 to 10000 nM. As for `Cc1c(-c2ccccc2)nn(CCN2CCC(F)(F)CC2)c1Nc1cnccc1C(=O)O` [Compound 66, 3-((1-(2-(4,4-difluoropiperidin-1-yl)ethyl)-4-methyl-3-phenyl-1H-pyrazol-5-yl)amino)isonicotinic acid], the IC50 was 10000 to 100000 nM. Take `Cc1c(Nc2cnccc2C(=O)O)nn(CCN2CCC(F)(F)CC2)c1-c1ccccc1` [Compound 67, 3-((1-(2-(4,4-difluoropiperidin-1-yl)ethyl)-4-methyl-5-phenyl-1H-pyrazol-3-yl)amino)isonicotinic acid]: the IC50 was in the range of 100 to 1000 nM.

`Cc1c(Nc2cnccc2C(=O)O)cnn1C1CCNCC1` [Compound 68, 3-((5-methyl-1-(piperidin-4-yl)-1H-pyrazol-4-yl)amino)isonicotinic acid]: the IC50 was in the range of 100 to 1000 nM.

With `Cc1nn(C2CCNCC2)cc1Nc1cnccc1C(=O)O` [Compound 69, 3-((3-methyl-1-(piperidin-4-yl)-1H-pyrazol-4-yl)amino) isonicotinic acid], the IC50 lay in the range of 1000 to 10000 nM. Next, `Cc1nn(-c2ccccc2C#N)cc1Nc1cnccc1C(=O)O` [Compound 70, 3-((1-(2-cyanophenyl)-3-methyl-1H-pyrazol-4-yl)amino) isonicotinic acid]: 1000 to 10000 nM.

For the molecule `Cc1cn(-c2ccccc2C#N)nc1Nc1cnccc1C(=O)O` [Compound 71, 3-((1-(2-cyanophenyl)-4-methyl-1H-pyrazol-3-yl)amino) isonicotinic acid], the IC50 was 100 to 1000 nM. Then `O=C(O)c1ccncc1Nc1nn(C2CCOCC2)cc1-c1ccccc1` [Compound 72, 3-((4-phenyl-1-(tetrahydro-2H-pyran-4-yl)-1H-pyrazol-3-yl)amino)isonicotinic acid], with 1000 to 10000 nM; and `O=C(O)c1ccncc1Nc1nn(CCC(F)(F)F)cc1-c1ccccc1` [Compound 73, 3-((4-phenyl-1-(3,3,3-trifluoropropyl)-1H-pyrazol-3-yl)amino) isonicotinic acid], with 100 to 1000 nM; and `O=C(O)c1ccncc1Nc1nn(CCC(F)(F)F)cc1-c1ccncc1` [Compound 74, 3-((4-(pyridin-4-yl)-1-(3,3,3-trifluoropropyl)-1H-pyrazol-3-yl)amino)isonicotinic acid], with 100 to 1000 nM. Next, `COc1ccc(-n2nc(C)c(Nc3cnccc3C(=O)O)c2C)cc1` [Compound 75, 3-((1-(4-methoxyphenyl)-3,5-dimethyl-1H-pyrazol-4-yl)amino)isonicotinic acid]: 1000 to 10000 nM. Next, `Cc1nn(-c2ccc(O)cc2)c(C)c1Nc1cnccc1C(=O)O` [Compound 76, 3-((1-(4-hydroxyphenyl)-3,5-dimethyl-1H-pyrazol-4-yl)amino)isonicotinic acid]: 1000 to 10000 nM; `Cc1nn(-c2ccccc2)c(C)c1Nc1cnccc1C(=O)O` [Compound 77, 3-((3,5-dimethyl-1-phenyl-1H-pyrazol-4-yl)amino)isonicotinic acid]: 100 to 1000 nM; `Cc1cc(Nc2cnccc2C(=O)O)n(C2CCOCC2)n1` [Compound 78, 3-((3-methyl-1-(tetrahydro-2H-pyran-4-yl)-1H-pyrazol-5-yl)amino) isonicotinic acid]: 100 to 1000 nM. For the molecule `Cc1c(Nc2cnccc2C(=O)O)cnn1[C@H]1CC[C@@H](N)CC1` [Compound 79, 3-((1-((cis)-4-aminocyclohexyl)-5-methyl-1H-pyrazol-4-yl)amino)isonicotinic acid], the IC50 lay within 1 to 100 nM.

Regarding `Cc1c(Nc2cnccc2C(=O)O)cnn1C1CCN(C2CCC2)CC1` [Compound 96], the 50% inhibitory concentration (IC50) lay in the range of 100 to 1000 nM. For `Cc1nn(C2CCN(C(=O)c3ccccc3)CC2)cc1Nc1cnccc1C(=O)O` [Compound 97, 3-(1-(1-benzoylpiperidin-4-yl)-3-methyl-1H-pyrazol-4-ylamino) isonicotinic acid], the IC50 is 1000 to 10000 nM. Next, `Cc1c(Nc2cnccc2C(=O)O)cnn1C1CCN(C(=O)c2ccccc2)CC1` [Compound 98, 3-(1-(1-benzoylpiperidin-4-yl)-5-methyl-1H-pyrazol-4-ylamino) isonicotinic acid]: 100 to 1000 nM. Next, `Cc1nn(C2CCN(CC(F)(F)F)CC2)cc1Nc1cnccc1C(=O)O` [Compound 99, 3-(3-methyl-1-(1-(2,2,2-trifluoroethyl)piperidin-4-yl)-1H-pyrazol-4-ylamino)isonicotinic acid]: 1000 to 10000 nM. Next, `Cc1c(Nc2cnccc2C(=O)O)cnn1C1CCN(CC(F)(F)F)CC1` [Compound 100, 3-(5-methyl-1-(1-(2,2,2-tri-fluoro-ethyl)piperidin-4-yl)-1H-pyrazol-4-ylamino)isonicotinic acid]: 100 to 1000 nM. `COC(=O)c1ccncc1Nc1cn(C2CCN(C(C)C)CC2)nc1C` [Compound 101, methyl 3-((1-(1-isopropylpiperidin-4-yl)-3-methyl-1H-pyrazol-4-yl)amino)isonicotinate]: the IC50 was in the range of 10000 to 100000 nM. Then `Cc1nn(C2CCN(C(C)C)CC2)cc1Nc1cnccc1C(=O)O` [Compound 102, 3-((1-(1-isopropylpiperidin-4-yl)-3-methyl-1H-pyrazol-4-yl)amino)isonicotinic acid], with 100 to 1000 nM.
